Measurements as given in paper PMC8288134, “Synthesis, potential antitumor activity, cell cycle analysis, and multitarget mechanisms of novel hydrazones incorporating a 4-methylsulfonylbenzene scaffold: a molecular docking study” (Journal of Enzyme Inhibition and Medicinal Chemistry, 2021).
Like-named read-outs stand apart in the source and are kept apart here.

Tests used:
K-562 = tested on: K-562; set-up: method as in https://dtp.cancer.gov/dtpstandard/dwindex/index.jsp; settings: reference drugs, ref https://dtp.cancer.gov/dtpstandard/dwindex/index.jsp; cited from earlier work
NCI-H23 = tested on: NCI-H23; set-up: method as in https://dtp.cancer.gov/dtpstandard/dwindex/index.jsp; settings: reference drugs, ref https://dtp.cancer.gov/dtpstandard/dwindex/index.jsp; cited from earlier work
SK-OV-3 = tested on: SK-OV-3; set-up: method as in https://dtp.cancer.gov/dtpstandard/dwindex/index.jsp; settings: reference drugs, ref https://dtp.cancer.gov/dtpstandard/dwindex/index.jsp; cited from earlier work
OVCAR-3 = tested on: OVCAR-3; set-up: method as in https://dtp.cancer.gov/dtpstandard/dwindex/index.jsp; settings: reference drugs, ref https://dtp.cancer.gov/dtpstandard/dwindex/index.jsp; cited from earlier work
M14 = tested on: M14; set-up: method as in https://dtp.cancer.gov/dtpstandard/dwindex/index.jsp; settings: reference drugs, ref https://dtp.cancer.gov/dtpstandard/dwindex/index.jsp; cited from earlier work
SNB-19 = tested on: SNB-19; set-up: method as in https://dtp.cancer.gov/dtpstandard/dwindex/index.jsp; settings: reference drugs, ref https://dtp.cancer.gov/dtpstandard/dwindex/index.jsp; cited from earlier work
SNB-75 = tested on: SNB-75; set-up: method as in https://dtp.cancer.gov/dtpstandard/dwindex/index.jsp; settings: reference drugs, ref https://dtp.cancer.gov/dtpstandard/dwindex/index.jsp; cited from earlier work
SR = tested on: SR; set-up: method as in https://dtp.cancer.gov/dtpstandard/dwindex/index.jsp; settings: reference drugs, ref https://dtp.cancer.gov/dtpstandard/dwindex/index.jsp; cited from earlier work
[1] = tested on: NSC lung cancer tumour cell lines; settings: cited from earlier work; for GI50: read-out: GI50 (subpanel average), reference drugs, ref https://dtp.cancer.gov/dtpstandard/dwindex/index.jsp; for CC50: read-out: LC50 (subpanel average), reference drugs, ref https://dtp.cancer.gov/dtpstandard/dwindex/index.jsp; for TGI (subpanel average): reference drugs, ref https://dtp.cancer.gov/dtpstandard/dwindex/index.jsp
PC-3 = tested on: PC-3; set-up: method as in https://dtp.cancer.gov/dtpstandard/dwindex/index.jsp; settings: reference drugs, ref https://dtp.cancer.gov/dtpstandard/dwindex/index.jsp; cited from earlier work
[2] = tested on: leukaemia tumour cell lines; settings: cited from earlier work; for GI50: read-out: GI50 (subpanel average), reference drugs, ref https://dtp.cancer.gov/dtpstandard/dwindex/index.jsp; for CC50: read-out: LC50 (subpanel average), reference drugs, ref https://dtp.cancer.gov/dtpstandard/dwindex/index.jsp; for TGI (subpanel average): reference drugs, ref https://dtp.cancer.gov/dtpstandard/dwindex/index.jsp
UACC-62 = tested on: UACC-62; set-up: method as in https://dtp.cancer.gov/dtpstandard/dwindex/index.jsp; settings: reference drugs, ref https://dtp.cancer.gov/dtpstandard/dwindex/index.jsp; cited from earlier work
[3] = tested on: prostate cancer tumour cell lines; settings: cited from earlier work; for GI50: read-out: GI50 (subpanel average), reference drugs, ref https://dtp.cancer.gov/dtpstandard/dwindex/index.jsp; for CC50: read-out: LC50 (subpanel average), reference drugs, ref https://dtp.cancer.gov/dtpstandard/dwindex/index.jsp; for TGI (subpanel average): reference drugs, ref https://dtp.cancer.gov/dtpstandard/dwindex/index.jsp
SF-295 = assay: NCI antitumor screen (SRB); format: cell-based; settings: Homo sapiens, one dose 10 µM, read-out: Growth inhibition percentage (GI%)
COLO 205 = assay: NCI antitumor screen (SRB); format: cell-based; settings: Homo sapiens, one dose 10 µM, read-out: Growth inhibition percentage (GI%)
T-47D = assay: NCI antitumor screen (SRB); format: cell-based; settings: Homo sapiens, T47D, one dose 10 µM, read-out: Growth inhibition percentage (GI%)
KM12 = assay: NCI antitumor screen (SRB); format: cell-based; settings: Homo sapiens, one dose 10 µM, read-out: Growth inhibition percentage (GI%)
EKVX = assay: NCI antitumor screen (SRB); format: cell-based; settings: Homo sapiens, one dose 10 µM, read-out: Growth inhibition percentage (GI%)
A498 = assay: NCI antitumor screen (SRB); format: cell-based; settings: Homo sapiens, one dose 10 µM, read-out: Growth inhibition percentage (GI%)
NCI-H322M = assay: NCI antitumor screen (SRB); format: cell-based; settings: Homo sapiens, one dose 10 µM, read-out: Growth inhibition percentage (GI%)
U251 = assay: NCI antitumor screen (SRB); format: cell-based; settings: Homo sapiens, U-251, one dose 10 µM, read-out: Growth inhibition percentage (GI%)
NCI-H522 = assay: NCI antitumor screen (SRB); format: cell-based; settings: Homo sapiens
MOLT-4 = assay: NCI antitumor screen (SRB); format: cell-based; settings: Homo sapiens, one dose 10 µM, read-out: Growth inhibition percentage (GI%)
HL-60(TB) = assay: cells; format: cell-based, human; settings: Homo sapiens, HL-60, HL-60(TB); one dose 10 µM; read-out: Growth inhibition percentage (GI%)
CCRF-CEM = assay: NCI antitumor screen (SRB); format: cell-based; settings: Homo sapiens, one dose 10 µM, read-out: Growth inhibition percentage (GI%)
MALME-3M = assay: NCI antitumor screen (SRB); format: cell-based; settings: Homo sapiens, one dose 10 µM, read-out: Growth inhibition percentage (GI%)
HL60 cells = assay: Annexin V-FITC/PI apoptosis assay; format: cell-based, human; settings: HL60, 10 µM, 24 h
Protocol: Apoptosis induction is the most important mechanism by which major chemotherapeutics kill cancer cells. Apoptosis causes cellular changes whereby the translocation of phosphatidylserine (PS) occurs through the plasma membrane from the inside to the outside. Annexin-V can bind to PS, which can be used as a sensitive probe for PS on the outer side of the plasma membrane. […] The AV/PI staining of HL60 cells was performed at a mixed molar concentration of 10 µM with compounds 6, 9, 16, and 20 for 24 h. Figure 4 and Table 5 show the results of treating HL60 cells with compounds 6, 9, 16, and 20 for 24 h.
According to our previous report, apoptosis induction was performed using the Leukaemia HL-60 cell line and well-established Annexin 5-FITC/PI detection kit. The cell line samples were analysed using FACSCalibur flow cytometer[40]^,[72]. […]
[(Ti-Tz)/Tz)] x 100 for concentration of which Ti ≤ Tz.
The induction of apoptosis was performed according to our previous report using Leukemia HL-
60 cell line and well-established Annexin 5-FITC/PI detection kit. The cell line samples were
analyzed using a FACSCalibur flow cytometer. […]

HER2 = HER2 (Homo sapiens, UniProt P04626); assay: biochemical; settings: read-out: IC50 HER2 Inhibition
Text: (§1) In vitro luminescent EGFR tyrosine kinase assay using Kinase-Glo® MAX as a detection reagent, and In vitro HER2 tyrosine kinase assay using DP‐Glo™ reagent that measures ADP formed from a kinase reaction, this luminescent signal positively correlates with ADP amount and kinase activity. […]
(§2) 2.1.5. EGFR and Her2 assays
(§3) In vitro luminescent EGFR tyrosine kinase assay, using Kinase-Glo® MAX as a detection reagent, and In vitro HER2 tyrosine kinase assay, using DP‐Glo™ reagent that measures the adenosine diphosphate (ADP) formed from a kinase reaction, were performed; this luminescent signal positively correlates with ADP amount and kinase activity. In 17 μl of distilled water, 6 μl of Kinase assay buffer and 1 μl ATP and 1 μl PTK substrate were mixed (master mixture). In every well, mix 20 μl of the master mixture and 5 μl of Inhibitor solution (Test Inhibitor) for positive control, and use 5 μl of the same solution without inhibitor (Inhibitor buffer) as the blank solution; add 20 μl of diluted EGFR or Her2 enzyme and incubate at 30°C for 40 min. Add 50 μl of Kinase-Glo Max reagent to each well, cover the plate with aluminum foil and incubate the plate at room temperature for 15 min. Afterward, measure luminescence using the microplate reader. “Blank” value is subtracted from all readings. […]

EGFR = EGFR (Homo sapiens, UniProt P00533); assay: biochemical; settings: read-out: IC50 EGFR Inhibition
Text: as §1, §2, §3

Sequence of HER2 (P04626 23-1255): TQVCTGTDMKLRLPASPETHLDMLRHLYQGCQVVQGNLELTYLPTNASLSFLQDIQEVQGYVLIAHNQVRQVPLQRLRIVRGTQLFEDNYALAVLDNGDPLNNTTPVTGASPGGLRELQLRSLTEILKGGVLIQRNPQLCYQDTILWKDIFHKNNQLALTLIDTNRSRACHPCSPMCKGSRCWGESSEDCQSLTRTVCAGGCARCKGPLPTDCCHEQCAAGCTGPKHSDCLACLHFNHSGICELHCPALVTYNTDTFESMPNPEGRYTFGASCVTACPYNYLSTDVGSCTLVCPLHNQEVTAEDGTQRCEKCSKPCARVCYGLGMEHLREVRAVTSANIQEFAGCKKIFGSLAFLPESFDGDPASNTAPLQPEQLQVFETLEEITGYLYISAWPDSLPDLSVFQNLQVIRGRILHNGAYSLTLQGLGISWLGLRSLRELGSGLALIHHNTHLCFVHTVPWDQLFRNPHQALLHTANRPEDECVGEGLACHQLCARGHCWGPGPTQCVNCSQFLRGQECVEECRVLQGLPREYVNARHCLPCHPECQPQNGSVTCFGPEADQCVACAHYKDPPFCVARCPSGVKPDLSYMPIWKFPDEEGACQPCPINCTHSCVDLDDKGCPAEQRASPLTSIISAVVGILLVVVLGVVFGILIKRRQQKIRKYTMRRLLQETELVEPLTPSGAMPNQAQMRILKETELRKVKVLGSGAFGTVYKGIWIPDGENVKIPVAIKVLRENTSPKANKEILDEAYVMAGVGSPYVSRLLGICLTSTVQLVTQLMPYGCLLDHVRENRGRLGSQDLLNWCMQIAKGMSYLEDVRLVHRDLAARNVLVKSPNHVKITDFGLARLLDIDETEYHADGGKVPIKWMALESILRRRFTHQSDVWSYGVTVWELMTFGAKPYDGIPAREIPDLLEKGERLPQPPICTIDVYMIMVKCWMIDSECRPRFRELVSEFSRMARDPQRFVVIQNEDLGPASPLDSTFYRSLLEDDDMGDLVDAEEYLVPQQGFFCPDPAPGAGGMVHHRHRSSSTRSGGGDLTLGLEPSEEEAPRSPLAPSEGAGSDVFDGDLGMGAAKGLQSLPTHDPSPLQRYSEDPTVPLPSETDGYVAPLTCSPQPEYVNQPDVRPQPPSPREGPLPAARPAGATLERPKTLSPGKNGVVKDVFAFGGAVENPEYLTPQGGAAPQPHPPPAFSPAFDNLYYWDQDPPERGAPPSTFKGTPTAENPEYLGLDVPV
Sequence of EGFR (P00533 25-1210): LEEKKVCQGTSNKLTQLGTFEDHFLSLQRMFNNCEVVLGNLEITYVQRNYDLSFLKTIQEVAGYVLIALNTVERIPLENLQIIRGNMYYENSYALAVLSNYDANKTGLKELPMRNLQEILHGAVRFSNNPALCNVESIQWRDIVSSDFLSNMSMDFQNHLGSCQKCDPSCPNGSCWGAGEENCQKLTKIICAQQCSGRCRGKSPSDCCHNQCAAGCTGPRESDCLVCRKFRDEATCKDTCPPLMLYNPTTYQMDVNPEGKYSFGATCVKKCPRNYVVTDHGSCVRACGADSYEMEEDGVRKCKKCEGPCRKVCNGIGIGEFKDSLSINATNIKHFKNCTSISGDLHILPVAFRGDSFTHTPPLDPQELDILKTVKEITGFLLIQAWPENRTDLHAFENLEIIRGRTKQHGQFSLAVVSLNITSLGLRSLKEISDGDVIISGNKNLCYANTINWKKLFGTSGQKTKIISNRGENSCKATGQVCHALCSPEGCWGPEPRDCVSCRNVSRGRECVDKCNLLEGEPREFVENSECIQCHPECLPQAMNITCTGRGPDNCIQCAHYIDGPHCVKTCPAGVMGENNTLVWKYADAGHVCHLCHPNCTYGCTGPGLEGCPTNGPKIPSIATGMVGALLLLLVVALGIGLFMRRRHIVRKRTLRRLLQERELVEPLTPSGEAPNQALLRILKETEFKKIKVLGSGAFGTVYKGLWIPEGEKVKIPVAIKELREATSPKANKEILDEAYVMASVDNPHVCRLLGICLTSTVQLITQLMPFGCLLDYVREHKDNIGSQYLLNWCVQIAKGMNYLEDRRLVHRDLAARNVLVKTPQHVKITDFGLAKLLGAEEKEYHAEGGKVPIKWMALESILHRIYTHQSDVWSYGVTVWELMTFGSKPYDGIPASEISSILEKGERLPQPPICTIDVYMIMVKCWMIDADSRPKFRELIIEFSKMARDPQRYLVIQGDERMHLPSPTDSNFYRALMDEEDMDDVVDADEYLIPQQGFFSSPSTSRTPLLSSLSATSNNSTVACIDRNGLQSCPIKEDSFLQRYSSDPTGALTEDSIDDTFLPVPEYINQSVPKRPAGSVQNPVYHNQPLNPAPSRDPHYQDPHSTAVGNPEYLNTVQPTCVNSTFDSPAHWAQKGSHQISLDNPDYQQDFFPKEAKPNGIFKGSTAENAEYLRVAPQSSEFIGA

Compound | GI50 (K-562) [µM] | GI50 (NCI-H23) [µM] | GI50 (SK-OV-3) [µM] | GI50 (OVCAR-3) [µM] | GI50 (M14) [µM] | GI50 (SNB-19) [µM] | GI50 (SNB-75) [µM] | GI50 (SR) [µM] | GI50 [1] [µM] | CC50 [1] [µM] | TGI (subpanel average) [1] [µM] | GI50 (PC-3) [µM] | GI50 [2] [µM] | CC50 [2] [µM] | TGI (subpanel average) [2] [µM] | GI50 (UACC-62) [µM] | GI50 [3] [µM] | CC50 [3] [µM] | TGI (subpanel average) [3] | other results
Cc1ccc(-c2cc(C(F)(F)F)nn2-c2ccc(S(N)(=O)=O)cc2)cc1 [Celecoxib, celecoxib] | 10 | 15.8 | 19.9 | 15.8 | 63.1 | 19.9 | 15.8 | 15.8 | 25.1 | 67.1 | 41.93 | 12.6 | 12.3 | 67.1 | 29.27 | 15.8 | 14.2 | 57 | 28.37 µM | 
O=c1[nH]cc(F)c(=O)[nH]1 [Compound 5-Fu, 5-fluorouracil, reference compound] |  |  |  |  |  |  |  |  | 13.6 | > 100 | 80.45 |  | 2.82 | > 100 | 68.37 |  | 1.46 | > 100 | c (Compounds showed values ≥ 100 µM) | inhibition at 10 µM (SF-295): 30.9%; inhibition at 10 µM (COLO 205): 59.8%; inhibition at 10 µM (T-47D): 43.3%; inhibition at 10 µM (KM12): 59.3%; inhibition at 10 µM (EKVX): 41.6%; inhibition at 10 µM (A498): > 100%; inhibition at 10 µM (NCI-H322M): 40.5%; inhibition at 10 µM (U251): 49.7%; inhibition at 10 µM (NCI-H522; NCI-H522, one dose 10 µM, read-out: Growth inhibition percentage (GI%)): 42%; inhibition at 10 µM (MOLT-4): 56.9%; inhibition at 10 µM (HL-60(TB)): 52.1%; inhibition at 10 µM (CCRF-CEM): 42.9%; inhibition at 10 µM (MALME-3M): 41.8%
CS(=O)(=O)c1ccc(C(=O)NN=Cc2cccc3ccccc23)cc1 [Compound 6, 4-(Methylsulfonyl)-N'-(naphthalen-1-ylmethylene)benzohydrazide] |  |  |  |  |  |  |  |  |  |  |  |  |  |  |  |  |  |  |  | inhibition at 10 µM (SF-295): 24%; Apoptosis, early (HL60 cells): 3.52%; Apoptosis, late (HL60 cells): 7.64%; Apoptosis, total (annexin V-FITC positive cells) (HL60 cells): 12.57%; Necrosis (HL60 cells): 1.41%; inhibition at 10 µM (COLO 205): 14.3%; inhibition at 10 µM (T-47D): 14.7%; inhibition at 10 µM (KM12): 49.2%; inhibition at 10 µM (EKVX): 12.6%; inhibition at 10 µM (A498): 30.9%; inhibition at 10 µM (NCI-H322M): < 10%; inhibition at 10 µM (U251): 23.7%; inhibition at 10 µM (NCI-H522; NCI-H522, read-out: Growth inhibition percentage (GI%)): 95.5%; inhibition at 10 µM (MOLT-4): 53.2%; IC50 (HER2): 0.35 ± 0.01 µM; IC50 (EGFR): 0.26 ± 0.09 µM; inhibition at 10 µM (HL-60(TB)): 62.5%; inhibition at 10 µM (CCRF-CEM): 22.4%; inhibition at 10 µM (MALME-3M): 30.3%
C#Cc1cccc(Nc2ncnc3cc(OCCOC)c(OCCOC)cc23)c1 [Erlotinib, erlotinib] | 31.6 | 31.6 | 0.5 | 3.98 | 6.31 | 12.6 | 12.6 | 10 | 13.1 | 97.7 | 73.76 | 39.8 | 27.9 | > 100 | 96.57 | 3.16 | 20.9 | > 100 | c (Compounds showed values ≥ 100 µM) | 
COc1cc2ncnc(Nc3ccc(F)c(Cl)c3)c2cc1OCCCN1CCOCC1 [Gefitinib, gefitinib] | 2.51 | 2.51 | 1 |  | 2 | 3.16 |  | 3.16 | 2.05 |  | 13.86 |  | 2.56 |  | 12.07 | 2 | 3.29 |  | 31.62 µM | 
CNC(=O)c1cc(Oc2ccc(NC(=O)Nc3ccc(Cl)c(C(F)(F)F)c3)cc2)ccn1 [Sorafenib, sorafenib] | 3.16 | 1.99 | 2.51 | 3.16 | 1.99 | 3.16 | 3.16 | 3.16 |  | 49.1 | 7.99 | 1.99 | 1.91 | > 100 | 42.12 |  | 2.58 | 69.9 | 10.27 µM | 
CS(=O)(=O)c1ccc(C(=O)Nc2ccc(Cl)c(-c3ccccn3)c2)c(Cl)c1 [Vismodegib, vismodegib] | 31.6 | 50.1 |  | 50.1 | 31.6 | 63.1 | 25.1 | 39.8 |  |  |  | 25.1 |  |  |  | 31.6 |  |  |  | 
